These results are taken from publication PMC9031908 (RSC Advances, 2021).

Molecules are shown by their SMILES. Read-outs that look alike come from different tables or passages of the source.

One series concerns the target H3 receptor (Rattus norvegicus, UniProt Q9QYN8). In kind it is binding.
Series [1] concerns the target T1, 5-HT6 receptor (Homo sapiens, UniProt P50406). In words: biochemical. In kind it is binding.
Series [2] addresses D2 receptor (Rattus norvegicus, UniProt P61169). Description: biochemical. In kind it is binding.
Series [3] has as its target 5-HT2A receptor (Rattus norvegicus, UniProt P14842). Description: biochemical. In kind it is binding.
Series [4] concerns the target T2, 5-HT1A receptor (Rattus norvegicus, UniProt P19327).
T2 sequence (P19327 1-422): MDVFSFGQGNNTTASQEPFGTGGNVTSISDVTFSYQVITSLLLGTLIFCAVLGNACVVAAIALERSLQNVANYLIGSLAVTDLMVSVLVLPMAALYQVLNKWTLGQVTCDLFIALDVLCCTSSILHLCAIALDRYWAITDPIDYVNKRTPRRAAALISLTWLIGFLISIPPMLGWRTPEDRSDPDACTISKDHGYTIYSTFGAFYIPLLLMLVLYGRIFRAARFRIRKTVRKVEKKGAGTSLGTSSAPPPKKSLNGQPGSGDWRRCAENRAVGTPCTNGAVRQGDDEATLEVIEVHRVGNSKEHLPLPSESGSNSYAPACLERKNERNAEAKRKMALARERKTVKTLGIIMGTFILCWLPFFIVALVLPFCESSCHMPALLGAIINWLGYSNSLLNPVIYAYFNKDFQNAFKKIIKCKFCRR
Description: biochemical. In kind it is binding.

Another series addresses T3, 5-HT2C receptor (Rattus norvegicus, UniProt P08909).
T3 sequence (P08909 33-460): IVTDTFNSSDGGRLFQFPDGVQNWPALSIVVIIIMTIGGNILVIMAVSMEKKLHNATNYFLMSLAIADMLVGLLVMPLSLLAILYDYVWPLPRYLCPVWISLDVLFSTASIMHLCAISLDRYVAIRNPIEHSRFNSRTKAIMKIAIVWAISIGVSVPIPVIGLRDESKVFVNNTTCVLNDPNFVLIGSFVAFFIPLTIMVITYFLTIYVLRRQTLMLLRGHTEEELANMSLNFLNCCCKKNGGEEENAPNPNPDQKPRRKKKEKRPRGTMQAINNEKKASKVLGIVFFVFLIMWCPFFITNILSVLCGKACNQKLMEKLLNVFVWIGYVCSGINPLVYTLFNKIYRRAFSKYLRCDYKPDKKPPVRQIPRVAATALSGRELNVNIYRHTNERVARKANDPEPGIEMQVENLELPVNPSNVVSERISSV
Description: biochemical.

A further series has as its target hH3R (Homo sapiens, UniProt Q9Y5N1). In words: H3 functional activity.
Another series addresses α1 receptor. The note with it: read-out: Receptor affinity Ki ± SEM, α1; three experiments, mean ± SEM.
Another series has as its target H1 receptor (Cavia porcellus, UniProt P31389). Description: biochemical.
Series [5] relates to rats. The note with it: oral.
For series [6], the system named is mice. In words: Weight gain after 28 days of administration. In kind it is in vivo. The note with it: oral.
Series [7] deals with mice. Description: Catalepsy test. In kind it is in vivo. The note with it: po.
Series [8] concerns the target D2 receptor (Homo sapiens, UniProt P14416). Description: cell-based.
Series [9] concerns mice. Description: MK-801-induced hyperactivity. The note with it: po.
The target in series [10] is 5-HT2A receptor (Homo sapiens, UniProt P28223). In words: 5-HT2A functional activity. In kind it is cell-based.
Sequence of 5-HT2A receptor (Homo sapiens, UniProt P28223) (P28223 whole entry): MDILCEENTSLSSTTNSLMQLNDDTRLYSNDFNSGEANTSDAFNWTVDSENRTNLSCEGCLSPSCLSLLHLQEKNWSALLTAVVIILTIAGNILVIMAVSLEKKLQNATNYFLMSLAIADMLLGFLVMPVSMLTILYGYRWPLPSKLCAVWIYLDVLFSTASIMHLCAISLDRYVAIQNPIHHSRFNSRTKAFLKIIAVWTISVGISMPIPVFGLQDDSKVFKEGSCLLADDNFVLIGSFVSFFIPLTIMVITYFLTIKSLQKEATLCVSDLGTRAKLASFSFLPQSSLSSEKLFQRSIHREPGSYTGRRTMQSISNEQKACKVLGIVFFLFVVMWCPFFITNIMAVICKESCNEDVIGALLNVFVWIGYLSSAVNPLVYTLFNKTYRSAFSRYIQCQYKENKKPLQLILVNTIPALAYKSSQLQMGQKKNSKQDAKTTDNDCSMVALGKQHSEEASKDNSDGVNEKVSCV
The subject of series [11] is mice. Description: Apomorphine-induced climbing. In kind it is in vivo. The note with it: po.
The target in series [12] is T4, 5-HT1A receptor (Homo sapiens, UniProt P08908).
T4 sequence (P08908 1-422): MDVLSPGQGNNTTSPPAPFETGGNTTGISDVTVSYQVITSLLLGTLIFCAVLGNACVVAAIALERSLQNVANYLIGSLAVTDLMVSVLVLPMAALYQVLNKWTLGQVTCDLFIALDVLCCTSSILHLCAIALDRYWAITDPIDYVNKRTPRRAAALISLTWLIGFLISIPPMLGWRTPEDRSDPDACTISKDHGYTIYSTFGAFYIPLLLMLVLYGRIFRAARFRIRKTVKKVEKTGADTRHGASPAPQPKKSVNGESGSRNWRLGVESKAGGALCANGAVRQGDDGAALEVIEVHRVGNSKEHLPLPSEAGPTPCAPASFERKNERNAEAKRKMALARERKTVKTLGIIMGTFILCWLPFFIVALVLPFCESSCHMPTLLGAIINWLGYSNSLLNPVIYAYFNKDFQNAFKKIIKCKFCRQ
Description: cell-based.

Series [13] has as its target T1, 5-HT6 receptor. Description: cell-based.
In series [14] the test system is mice. Description: Acute toxicity. The note with it: oral, 24 h.
Series [15] has as its system mice. Description: Serum prolactin after 28 days of administration. In kind it is in vivo. Conditions: oral.
Series [16] relates to rats. Description: Conditioned avoidance response. In kind it is in vivo. Conditions: po.

As usually defined, the Ki is the equilibrium dissociation constant of an inhibitor or competing ligand from its target. In general, IC50 refers to the concentration that inhibits the measured activity by half. The LD50 is the dose at which mortality reaches 50%. A lower LD50 goes with a more toxic substance.

T1 sequence (P50406 whole entry): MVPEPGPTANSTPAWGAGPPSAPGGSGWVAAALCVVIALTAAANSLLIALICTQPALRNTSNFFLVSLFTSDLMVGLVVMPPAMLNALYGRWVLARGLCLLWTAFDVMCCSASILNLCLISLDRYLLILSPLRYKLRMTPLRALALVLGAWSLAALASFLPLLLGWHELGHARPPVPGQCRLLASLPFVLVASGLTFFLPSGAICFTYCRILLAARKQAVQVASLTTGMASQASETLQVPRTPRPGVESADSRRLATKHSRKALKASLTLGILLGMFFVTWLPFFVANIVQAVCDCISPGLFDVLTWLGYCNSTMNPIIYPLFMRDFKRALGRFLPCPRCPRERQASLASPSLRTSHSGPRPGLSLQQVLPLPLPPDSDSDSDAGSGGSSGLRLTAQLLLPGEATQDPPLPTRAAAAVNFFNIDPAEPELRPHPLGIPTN
Sequence of D2 receptor (Rattus norvegicus, UniProt P61169) (P61169 whole entry): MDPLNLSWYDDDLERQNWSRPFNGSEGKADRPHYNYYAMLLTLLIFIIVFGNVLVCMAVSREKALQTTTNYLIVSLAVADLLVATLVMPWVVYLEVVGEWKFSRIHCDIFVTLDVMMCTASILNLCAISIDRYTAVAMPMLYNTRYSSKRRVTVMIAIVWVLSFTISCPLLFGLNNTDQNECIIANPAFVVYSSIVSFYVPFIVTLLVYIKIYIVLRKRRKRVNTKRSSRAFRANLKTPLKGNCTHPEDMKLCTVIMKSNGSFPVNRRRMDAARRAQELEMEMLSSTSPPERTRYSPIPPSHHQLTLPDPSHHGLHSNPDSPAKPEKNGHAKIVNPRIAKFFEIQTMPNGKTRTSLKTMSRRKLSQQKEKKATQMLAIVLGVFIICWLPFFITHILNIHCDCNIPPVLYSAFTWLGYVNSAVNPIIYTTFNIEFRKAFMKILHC
Sequence of H3 receptor (Q9QYN8 whole entry): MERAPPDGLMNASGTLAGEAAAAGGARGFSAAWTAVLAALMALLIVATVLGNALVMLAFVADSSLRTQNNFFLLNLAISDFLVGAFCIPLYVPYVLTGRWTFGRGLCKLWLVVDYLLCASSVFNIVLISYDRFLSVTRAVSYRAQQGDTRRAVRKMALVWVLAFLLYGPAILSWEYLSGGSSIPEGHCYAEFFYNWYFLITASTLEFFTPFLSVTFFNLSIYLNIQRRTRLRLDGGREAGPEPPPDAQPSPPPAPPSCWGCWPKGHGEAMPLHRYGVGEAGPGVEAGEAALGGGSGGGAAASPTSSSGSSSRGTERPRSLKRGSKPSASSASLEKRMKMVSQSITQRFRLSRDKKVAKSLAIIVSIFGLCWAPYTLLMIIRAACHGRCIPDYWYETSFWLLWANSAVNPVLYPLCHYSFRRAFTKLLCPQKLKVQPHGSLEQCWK
Sequence of 5-HT2A receptor (Rattus norvegicus, UniProt P14842) (P14842 whole entry): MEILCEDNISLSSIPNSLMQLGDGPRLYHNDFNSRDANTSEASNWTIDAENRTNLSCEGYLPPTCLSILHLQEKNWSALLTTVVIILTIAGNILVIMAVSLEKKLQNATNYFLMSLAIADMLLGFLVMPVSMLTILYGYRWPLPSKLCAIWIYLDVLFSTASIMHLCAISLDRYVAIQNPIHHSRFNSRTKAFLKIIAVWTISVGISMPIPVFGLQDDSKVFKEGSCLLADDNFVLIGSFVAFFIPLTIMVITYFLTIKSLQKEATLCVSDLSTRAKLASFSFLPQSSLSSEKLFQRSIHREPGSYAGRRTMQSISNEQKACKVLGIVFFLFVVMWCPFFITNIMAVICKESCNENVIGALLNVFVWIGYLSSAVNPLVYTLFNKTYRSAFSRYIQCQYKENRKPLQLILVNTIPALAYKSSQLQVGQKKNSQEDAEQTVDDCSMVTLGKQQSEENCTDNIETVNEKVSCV
Sequence of H1 receptor (P31389 whole entry): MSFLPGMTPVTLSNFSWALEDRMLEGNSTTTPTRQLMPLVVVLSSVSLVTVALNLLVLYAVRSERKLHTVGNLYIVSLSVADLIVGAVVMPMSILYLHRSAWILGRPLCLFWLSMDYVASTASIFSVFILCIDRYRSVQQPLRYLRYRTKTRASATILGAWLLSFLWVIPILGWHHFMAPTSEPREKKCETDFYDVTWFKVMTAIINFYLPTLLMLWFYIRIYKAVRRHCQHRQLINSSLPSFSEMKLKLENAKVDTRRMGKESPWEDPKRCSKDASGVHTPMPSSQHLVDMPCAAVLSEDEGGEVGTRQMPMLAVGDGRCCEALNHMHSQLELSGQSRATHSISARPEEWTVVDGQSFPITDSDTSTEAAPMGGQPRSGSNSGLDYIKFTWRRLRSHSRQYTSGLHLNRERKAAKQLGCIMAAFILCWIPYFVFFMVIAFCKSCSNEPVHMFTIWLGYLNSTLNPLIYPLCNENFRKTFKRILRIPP
Sequence of D2 receptor (Homo sapiens, UniProt P14416) (P14416 whole entry): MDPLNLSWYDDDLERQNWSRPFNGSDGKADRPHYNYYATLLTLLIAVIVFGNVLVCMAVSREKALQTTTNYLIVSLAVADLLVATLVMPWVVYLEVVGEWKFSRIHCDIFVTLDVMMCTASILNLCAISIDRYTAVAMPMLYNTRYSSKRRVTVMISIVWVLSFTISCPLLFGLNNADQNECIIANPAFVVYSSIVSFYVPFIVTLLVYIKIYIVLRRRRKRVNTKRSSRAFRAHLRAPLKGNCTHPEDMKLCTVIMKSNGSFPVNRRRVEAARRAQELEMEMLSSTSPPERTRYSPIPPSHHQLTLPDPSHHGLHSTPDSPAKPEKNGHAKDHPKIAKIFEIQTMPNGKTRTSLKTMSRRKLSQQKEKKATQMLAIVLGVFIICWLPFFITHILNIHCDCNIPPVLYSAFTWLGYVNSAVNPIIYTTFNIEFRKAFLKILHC
Sequence of hH3R (Q9Y5N1 whole entry): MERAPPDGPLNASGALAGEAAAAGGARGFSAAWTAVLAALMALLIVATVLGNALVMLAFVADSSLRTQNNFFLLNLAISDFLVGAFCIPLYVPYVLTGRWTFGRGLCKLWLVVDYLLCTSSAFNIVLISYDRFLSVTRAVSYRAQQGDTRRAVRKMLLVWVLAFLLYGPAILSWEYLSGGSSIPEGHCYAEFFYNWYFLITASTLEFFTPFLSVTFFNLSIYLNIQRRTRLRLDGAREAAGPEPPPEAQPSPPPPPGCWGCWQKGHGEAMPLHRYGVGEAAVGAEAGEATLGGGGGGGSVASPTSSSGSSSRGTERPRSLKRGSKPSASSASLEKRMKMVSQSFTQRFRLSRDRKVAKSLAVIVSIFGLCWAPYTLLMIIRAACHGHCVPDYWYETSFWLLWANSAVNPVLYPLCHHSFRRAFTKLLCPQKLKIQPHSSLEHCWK

For the molecule `Fc1cc(CN2CCCC2)ccc1OCCCN1CCN(c2cccc3sccc23)CC1` [Compound 3c], the Ki on H3 receptor came to 0.0929 ± 0.0036 µM; on 5-HT6 receptor [1], 0.383 ± 0.0346 µM; at D2 receptor [2] it was 0.1 ± 0.007 µM; at 5-HT2A receptor [3] it was 0.259 ± 0.014 µM; at 5-HT1A receptor [4], 0.155 ± 0.0152 µM.
Turning to `Fc1cc(OCCCN2CCN(c3cccc4sccc34)CC2)ccc1CN1CCCC1` [Compound 3d], the Ki was 0.0544 ± 0.002 µM at H3 receptor; 0.354 ± 0.0658 µM on 5-HT6 receptor [1]; 0.0987 ± 0.0068 µM on D2 receptor [2]; 0.262 ± 0.0175 µM on 5-HT2A receptor [3]; 0.144 ± 0.0104 µM on 5-HT1A receptor [4].
The like results for `Clc1cc(OCCCN2CCN(c3cccc4sccc34)CC2)ccc1CN1CCCC1` [Compound 3f] were, in that order, 0.0753 ± 0.0085 µM, 0.376 ± 0.0583 µM, 0.12 ± 0.015 µM, 0.268 ± 0.0202 µM and 0.185 ± 0.0163 µM.
Regarding `COc1cc(CN2CCCC2)ccc1OCCCN1CCN(c2cccc3sccc23)CC1` [Compound 3g], the Ki is 0.0625 ± 0.005 µM on H3 receptor; 0.462 ± 0.0557 µM on 5-HT6 receptor [1]; 0.0995 ± 0.0084 µM at D2 receptor [2]; 0.129 ± 0.0151 µM on 5-HT2A receptor [3]; 0.149 ± 0.0117 µM on 5-HT1A receptor [4].
As to `c1cc(N2CCN(CCCOc3ccc(CN4CCCC4)cc3)CC2)c2ccsc2c1` [Compound 3i], the Ki stood at 0.053 ± 0.0063 µM on H3 receptor; 0.384 ± 0.0513 µM at 5-HT6 receptor [1]; 0.0911 ± 0.0045 µM at D2 receptor [2]; 0.186 ± 0.0201 µM on 5-HT2A receptor [3]; 0.135 ± 0.0105 µM on 5-HT1A receptor [4].
The like results for `Cc1cc(CN2CCCCC2)ccc1OCCCN1CCN(c2cccc3sccc23)CC1` [Compound 3j] were, in that order, 0.085 ± 0.0098 µM, 0.385 ± 0.051 µM, 0.138 ± 0.0301 µM, 0.324 ± 0.0275 µM and 0.305 ± 0.0282 µM.
The like results for `Fc1cc(CN2CCCCC2)ccc1OCCCN1CCN(c2cccc3sccc23)CC1` [Compound 3l] were, in that order, 0.0884 ± 0.0101 µM, 0.389 ± 0.0632 µM, 0.197 ± 0.0155 µM, 0.175 ± 0.0253 µM and 0.285 ± 0.0157 µM.
`Fc1cc(OCCCN2CCN(c3cccc4sccc34)CC2)ccc1CN1CCCCC1` [Compound 3m]: the Ki is 0.0815 ± 0.0065 µM at H3 receptor; 0.365 ± 0.0556 µM on 5-HT6 receptor [1]; 0.11 ± 0.0089 µM on D2 receptor [2]; 0.146 ± 0.0115 µM on 5-HT2A receptor [3]; 0.213 ± 0.0243 µM at 5-HT1A receptor [4].
Regarding `COc1cc(CN2CCCCC2)ccc1OCCCN1CCN(c2cccc3sccc23)CC1` [Compound 3p], the Ki at 5-HT6 receptor [1] was 0.416 ± 0.0813 µM; at D2 receptor [2], 0.144 ± 0.015 µM; on 5-HT2A receptor [3], 0.198 ± 0.0169 µM; on 5-HT1A receptor [4] it was 0.229 ± 0.0258 µM.
Take `c1cc(N2CCN(CCCOc3ccc(CN4CCOCC4)cc3)CC2)c2ccsc2c1` [Compound 3w]: the Ki worked out at 0.572 ± 0.0915 µM at 5-HT2C receptor; 0.406 ± 0.0608 µM on α1 receptor; 0.82 ± 0.0487 µM on H1 receptor; 0.0121 ± 0.0015 µM at H3 receptor; 0.336 ± 0.0653 µM at 5-HT6 receptor [1]; 0.0175 ± 0.0019 µM at D2 receptor [2]. For the same molecule, at 5-HT1A receptor [4], the Ki was determined as 0.0167 ± 0.0018 µM. Further, the IC50 is 0.232 µM on hH3R; 0.0116 µM against D2 receptor [8]; 0.142 µM against 5-HT2A receptor [10]; 0.218 µM at 5-HT1A receptor [12]; 0.413 µM against 5-HT6 receptor [13]. Also, the “novelty discrimination index (NDI)” value in the series with rats [5] (0.3 and 1.0 mg kg^−1) is recorded as “obvious increase”. Further, in the series on rats [5] (1.0–10.0 mg kg^−1), the “effect on total exploration time during the acquisition trial” value was “no obvious effect”. Further, the “difference in exploration times for novel and familiar objects, retention trial” value in the series on rats [5] (low dose 0.1 mg kg^−1) was “no significant difference”. In the series with mice [6], the weight gain result is reported as “negligible weight gain”. Also, the “CAT: catalepsy ED50” value in the series with mice [7] was found to be 27.5 mg/kg. The “MK-801: MK-801-induced hyperactivity ED50” value with mice [9] stood at 0.17 mg/kg. Also, the “APO: apomorphine-induced climbing ED50” value with mice [11] is 0.28 mg/kg.
Consider `O=C(CCCN1CCC(O)(c2ccc(Cl)cc2)CC1)c1ccc(F)cc1` [Haloperidol, haloperidol], for which the “CAT: catalepsy ED50” value with mice [7] amounted to 0.51 mg/kg. Besides, the LD50 in the series on mice [14] worked out at 21.0 mg/kg. Also, the “MK-801: MK-801-induced hyperactivity ED50” value in the series on mice [9] was 0.11 mg/kg. In addition, in the series with mice [11], the “APO: apomorphine-induced climbing ED50” value came out at 0.09 mg/kg.
Turning to `Cc1nc2n(c(=O)c1CCN1CCC(c3noc4cc(F)ccc34)CC1)CCCC2` [Risperidone, risperidone], the serum prolactin levels entry with mice [15] is given as “significant increase”. Moreover, the weight gain result in the series with mice [6] is on record as “significant weight gain”. Also, the figures for the “CAT: catalepsy ED50” value in the series with mice [7] and with mice [7] (listed as risperidone) were 0.51 mg/kg and 1.15 mg/kg, respectively. In the series with mice [14], this molecule had an LD50 of 82.0 mg/kg. The “CAR: conditioned avoidance response ED50” value stood at 0.65 mg/kg in the series with rats [16] and 2.1 mg/kg in the series with rats [16] (listed as risperidone). Moreover, the “MK-801: MK-801-induced hyperactivity ED50” value in the series on mice [9] is 0.02 mg/kg. The “APO: apomorphine-induced climbing ED50” value in the series with mice [11] is 0.05 mg/kg.
Take `CCN(C)C(=O)Oc1cccc([C@H](C)N(C)C)c1` [rivastigmine, reference compound]: the “novelty discrimination index (NDI)” value in the series with rats [5] (0.1 and 0.3 mg kg^−1) is listed as “obvious increase”. Further, in the series on rats [5] (0.1 to 3.0 mg kg^−1), the “exploration time for novel things vs vehicle, retention trial” value is “longer exploration”.
